Patent US10597388B2, “Pyridazinone herbicides” (FMC CORPORATION, priority 2014, dated 2020)

Key:
Assay in all cases: Test D controlled growth environment herbicide test, pre- and postemergence
Format in all cases: in vivo
[1] = test system: barley, spring (spring barley, Hordeum vulgare)
How it was run: (§1)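 Species sown in silt loam and sprayed preemergence, or grown in peat-based medium to 2–18 cm (1- to 4-leaf stage) and sprayed postemergence, with compounds in non-phytotoxic solvent plus surfactant. Visual injury scored versus controls after 14–21 d in a controlled environment, 0 (no effect) to 100 (complete control).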

[2] = test system: blackgrass (Alopecurus myosuroides)
How it was run: as §1

[3] = test system: bluegrass (annual bluegrass, Poa annua)
How it was run: as §1

[4] = test system: buckwheat, wild (wild buckwheat, Polygonum convolvulus)
How it was run: as §1

[5] = test system: canarygrass (Phalaris minor)
How it was run: as §1

[6] = test system: chamomile (scentless chamomile, Matricaria inodora)
How it was run: as §1

[7] = test system: field violet (Viola arvensis)
How it was run: as §1

[8] = test system: foxtail, green (green foxtail, Setaria viridis)
How it was run: as §1

[9] = test system: oat, wild (wild oat, Avena fatua)
How it was run: as §1

[10] = test system: pigweed (Amaranthus retroflexus)
How it was run: as §1

[11] = test system: radish, wild (wild radish, Raphanus raphanistrum)
How it was run: as §1

[12] = test system: ryegrass, Italian (Italian ryegrass, Lolium multiflorum)
How it was run: as §1

[13] = test system: wheat, spring (spring wheat, Triticum aestivum)
How it was run: as §1

[14] = Postemergence, 31 g ai/ha, scale 0 to 100 (0 no effect, 100 complete control)
[15] = Postemergence, 125 g ai/ha, visual rating on scale 0 (no effect) to 100 (complete control), 14 to 21 d
[16] = Postemergence, 250 g ai/ha, scale 0 to 100 (0 no effect, 100 complete control)
[17] = Preemergence, 62 g ai/ha, scale 0 to 100 (0 no effect, 100 complete control)
[18] = Preemergence, 125 g ai/ha, scale 0 to 100 (0 no effect, 100 complete control)
[19] = Preemergence, 250 g ai/ha, scale 0 to 100 (0 no effect, 100 complete control)
[20] = postemergence, 62 g ai/ha, scale 0 to 100, 0 no effect, 100 complete control

SMILES: CC(=O)Oc1c(C)nn(C)c(=O)c1-c1c(C)sc2c(C)cc(C)cc12 [Compound 27]
- Plant response rating, Barley, Spring [1, 14]: 0
- Plant response rating, Barley, Spring [1, 15]: 5
- Plant response rating, Barley, Spring [1, 16]: 10
- Plant response rating (scale of 0 to 100), Barley, Spring ([1]; Preemergence, 31 g ai/ha): 0
- Plant response rating, Barley, Spring [1, 17]: 0
- Plant response rating, Barley, Spring [1, 18]: 0
- Barley, Spring plant response rating [1, 19]: 0
- Plant response rating, Barley, Spring [1, 20]: 0
- Blackgrass plant response rating [2, 14]: 75
- Plant response rating, Blackgrass [2, 15]: 90
- Plant response rating, Blackgrass [2, 16]: 90
- Plant response rating (scale of 0 to 100), Blackgrass ([2]; Preemergence, 31 g ai/ha): 85
- Plant response rating, Blackgrass [2, 17]: 90
- Plant response rating, Blackgrass [2, 18]: 95
- Blackgrass plant response rating [2, 19]: 100
- Plant response rating, Blackgrass [2, 20]: 80
- Bluegrass plant response rating [3, 14]: 15
- Plant response rating, Bluegrass [3, 15]: 30
- Plant response rating, Bluegrass [3, 16]: 40
- Plant response rating (scale of 0 to 100), Bluegrass ([3]; Preemergence, 31 g ai/ha): 25
- Plant response rating, Bluegrass [3, 17]: 35
- Plant response rating, Bluegrass [3, 18]: 70
- Bluegrass plant response rating [3, 19]: 80
- Plant response rating, Bluegrass [3, 20]: 25
- Buckwheat, Wild plant response rating [4, 14]: 100
- Plant response rating, Buckwheat, Wild [4, 15]: 100
- Plant response rating, Buckwheat, Wild [4, 16]: 100
- Plant response rating (scale of 0 to 100), Buckwheat, Wild ([4]; Preemergence, 31 g ai/ha): 25
- Plant response rating, Buckwheat, Wild [4, 17]: 30
- Plant response rating, Buckwheat, Wild [4, 18]: 45
- Plant response rating, Buckwheat, Wild [4, 19]: 80
- Plant response rating, Buckwheat, Wild [4, 20]: 100
- Canarygrass plant response rating [5, 14]: 75
- Plant response rating, Canarygrass [5, 15]: 85
- Plant response rating, Canarygrass [5, 16]: 90
- Plant response rating (scale of 0 to 100), Canarygrass ([5]; Preemergence, 31 g ai/ha): 85
- Plant response rating, Canarygrass [5, 17]: 95
- Plant response rating, Canarygrass [5, 18]: 100
- Plant response rating, Canarygrass [5, 19]: 100
- Plant response rating, Canarygrass [5, 20]: 80
- Chamomile plant response rating [6, 14]: 80
- Plant response rating, Chamomile [6, 15]: 95
- Plant response rating, Chamomile [6, 16]: 100
- Plant response rating (scale of 0 to 100), Chamomile ([6]; Preemergence, 31 g ai/ha): 100
- Plant response rating, Chamomile [6, 17]: 100
- Plant response rating, Chamomile [6, 18]: 100
- Plant response rating, Chamomile [6, 19]: 100
- Plant response rating, Chamomile [6, 20]: 90
- Field Violet plant response rating [7, 14]: 75
- Plant response rating, Field Violet [7, 15]: 75
- Plant response rating, Field Violet [7, 16]: 85
- Plant response rating (scale of 0 to 100), Field Violet ([7]; Preemergence, 31 g ai/ha): 80
- Plant response rating, Field Violet [7, 17]: 90
- Plant response rating, Field Violet [7, 18]: 95
- Plant response rating, Field Violet [7, 19]: 95
- Plant response rating, Field Violet [7, 20]: 70
- Foxtail, Green plant response rating [8, 14]: 70
- Plant response rating, Foxtail, Green [8, 15]: 80
- Plant response rating, Foxtail, Green [8, 16]: 80
- Plant response rating (scale of 0 to 100), Foxtail, Green ([8]; Preemergence, 31 g ai/ha): 95
- Plant response rating, Foxtail, Green [8, 17]: 95
- Plant response rating, Foxtail, Green [8, 18]: 100
- Plant response rating, Foxtail, Green [8, 19]: 100
- Plant response rating, Foxtail, Green [8, 20]: 80
- Oat, Wild plant response rating [9, 14]: 75
- Plant response rating, Oat, Wild [9, 15]: 90
- Plant response rating, Oat, Wild [9, 16]: 98
- Plant response rating (scale of 0 to 100), Oat, Wild ([9]; Preemergence, 31 g ai/ha): 85
- Plant response rating, Oat, Wild [9, 17]: 85
- Plant response rating, Oat, Wild [9, 18]: 90
- Plant response rating, Oat, Wild [9, 19]: 95
- Plant response rating, Oat, Wild [9, 20]: 85
- Pigweed plant response rating [10, 14]: 75
- Plant response rating, Pigweed [10, 15]: 95
- Plant response rating, Pigweed [10, 16]: 95
- Plant response rating (scale of 0 to 100), Pigweed ([10]; Preemergence, 31 g ai/ha): 100
- Plant response rating, Pigweed [10, 17]: 100
- Plant response rating, Pigweed [10, 18]: 100
- Plant response rating, Pigweed [10, 19]: 100
- Plant response rating, Pigweed [10, 20]: 85
- Radish, Wild plant response rating [11, 14]: 65
- Plant response rating, Radish, Wild [11, 15]: 85
- Plant response rating, Radish, Wild [11, 16]: 90
- Plant response rating (scale of 0 to 100), Radish, Wild ([11]; Preemergence, 31 g ai/ha): 0
- Plant response rating, Radish, Wild [11, 17]: 50
- Plant response rating, Radish, Wild [11, 18]: 60
- Plant response rating, Radish, Wild [11, 19]: 95
- Plant response rating, Radish, Wild [11, 20]: 75
- Ryegrass, Italian plant response rating [12, 14]: 80
- Plant response rating, Ryegrass, Italian [12, 15]: 85
- Plant response rating, Ryegrass, Italian [12, 16]: 85
- Plant response rating (scale of 0 to 100), Ryegrass, Italian ([12]; Preemergence, 31 g ai/ha): 90
- Plant response rating, Ryegrass, Italian [12, 17]: 100
- Plant response rating, Ryegrass, Italian [12, 18]: 100
- Plant response rating, Ryegrass, Italian [12, 19]: 100
- Plant response rating, Ryegrass, Italian [12, 20]: 85
- Wheat, Spring plant response rating [13, 14]: 0
- Plant response rating, Wheat, Spring [13, 15]: 10
- Plant response rating, Wheat, Spring [13, 16]: 20
- Plant response rating (scale of 0 to 100), Wheat, Spring ([13]; Preemergence, 31 g ai/ha): 0
- Plant response rating, Wheat, Spring [13, 17]: 0
- Plant response rating, Wheat, Spring [13, 18]: 5
- Plant response rating, Wheat, Spring [13, 19]: 25
- Plant response rating, Wheat, Spring [13, 20]: 5
